Experimental data from PMC4736406 (Stem Cells International, 2016).
Where a name gives a salt, the structure may show the parent alone.

What was measured:
HepG2 cells = experiment: Image based high content analysis (HCA), fixed and live assays, in HepG2
Procedure: Briefly, the cells were grown in DMEM supplemented with 10% heat inactivated FBS, 1% penicillin-streptomycin (PEST), 1% sodium pyruvate, and 1% nonessential amino acids. Cells were passaged at 1 : 8 or 1 : 6 every 3-4 days when they reach 75–80% confluence. Seeding density was optimized for HCA application to ensure that the cells were in a monolayer (5000 cells per well in 96-well plates) for precise imaging. The cells were grown for 48 h to attach and stabilize. The experiments performed with HepG2 cells were designed to ensure that each assay was performed with cells in a similar growth phase.
Each concentration was assayed in triplicate wells. […] The experimental process is illustrated in Figure 2.
And finally, TOTO-3 was used for assessing PMP.
The cells were imaged using an Olympus ScanR system.
All other fluorescence signals were considered as subobjects.

[1] = system: hiPSC derived hepatocytes (hiPS-HEP); experiment: Image based high content analysis (HCA), fixed and live assays, in hiPSC derived hepatocytes;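 also: hiPS-HEP obtained from ChiPSC4 through definitive endoderm under serum- and feeder-free conditions in 96-well plates, fluorescence imaging, each concentration run in triplicate wells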
Excerpt: (§1) For hepatic differentiation, a serum- and feeder-free procedure recapitulating liver development was applied. First, ChiPSC4 was guided to differentiate into definitive endoderm using the Cellartis DE Diff Kit (Takara Bio Europe AB; Y30030), containing complete media and coating solution for differentiation of hPSC to DE cells in 2D culture. On day 7 of differentiation, the DE cells were enzymatically dissociated and reseeded into fibronectin coated 96-well plates. […] Wells of 96-well plates were coated by adding fibronectin solution 0.15 mL per cm^2 to the wells and let to incubate for >60 min at RT. […] Next, the cell suspension was centrifuged for 5 min at 300 g at RT, the supernatant was removed, and the cell pellet was resuspended in warm Hepatocyte Thawing and Seeding medium (Cellartis Hepatocyte Diff Kit; Takara Bio Europe AB; Y30050). Prior to seeding of cells, excess coating was removed and 150 K DE cells/cm^2 were seeded in the 96-well plates. On days 9 and 11 (counted from the start of ChiPSC4 differentiation), medium was changed using Hepatocyte Progenitor Medium (Cellartis Hepatocyte Diff Kit).
(§2) The cells were treated for 48 h with compounds at varying concentrations (half log dilution from the top concentration). […] The stock solutions were prepared in DMSO or water and were diluted in culture medium to obtain the final concentration. Each concentration was assayed in triplicate wells. Vehicle control wells were included and the final DMSO concentration in the medium never exceeded 0.5% (v/v). Each batch had two plates each for fixed and live assays.
(§3) LipidTOX Green neutral lipids and LipidTox Red phospholipidosis were used for identifying neutral lipid and phospholipid formation within the cells. MMP changes (Δψm) within the cell were measured using MitoTracker orange. Carboxy-H2DCFDA (6-carboxy-2′,7′-dichlorodihydrofluorescein diacetate) an acetylated fluorescent was used for measuring ROS. And finally, TOTO-3 was used for assessing PMP.
(§4) The fluorescence probes were grouped into two sets according to their optical compatibility and requirement of fixed or live material. […] The fluorescent probes for neutral lipids and phospholipids required the cells to be fixed and were assigned to the fixed assay. The probes MitoTracker orange, carboxy-H2DCFDA, and TOTO-3 were assigned to the live assay.
(§5) Following compound incubation, probes were administered to the cultures of the live assay. […] After incubation for 45 min at optimal cell culture conditions, the cells were changed to phenol red (PR) free medium for live cell imaging. For fixed assay, LipidTox Red probe was added with the compounds, and after 48 h the cells were fixed in 4% PFA supplemented with 1X Hoechst stain for 30 min at room temperature. Subsequently, cells were washed with PBS^+/+ and 1X LipidTOX Green stain diluted in PBS^+/+ was incubated with the cells for 30 min at room temperature. The plates were imaged without removing the buffer with probe.
(§6) The cells were imaged using an Olympus ScanR system. Prior to image acquisition, the heating system and CO2 gas flow were started to ensure optimal conditions in the ScanR chamber for live cell analysis. The incubator was set to 37°C with 5% CO2 and relative humidity of 90%. […] 20X long distance objective with NA 0.45 was used to image distinct fluorescence channels. In order to cover the entire well and also to capture maximum cell events sixteen fields per well (4 × 4 tile grid spread equally) were imaged. The channel exposure time for LipidTOX Green, LipidTOX Red, MitoTracker orange, and carboxy-H2DCFHDA were set based on the fluorescence of the negative control wells and were set constant within each plate. Exposure time for Hoechst and TOTO-3 was set in the range of 1–10 ms depending on cellular fluorescence intensity.
(§7) The acquired images were analyzed using ScanR analysis program from Olympus.

[2] = system: hiPSC derived hepatocytes (hiPS-HEP);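 also: hiPS-HEP obtained from ChiPSC4 through definitive endoderm under serum- and feeder-free conditions in 96-well plates, fluorescence imaging, each concentration run in triplicate wells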
Excerpt: as §1, §2, §3, §4, §5, §6, §7

[3] = plasma; no reference given; read-out: C max (maximum plasma concentration of the drug); cited from earlier work
[4] = HepG2, fixed, at 100 µM (Amiodarone HCL at […])
[5] = hiPSC derived hepatocytes, at concentrations higher than 100 μM, similar to control up to 100 μM

SMILES: O=C([O-])CC(O)(CC(=O)[O-])C(=O)[O-].[Na+].[Na+].[Na+] [Sodium citrate, sodium citrate]
- Degree of injury score, Phospholipids Area (HepG2 cells; [4]): 0 (variation lower than 25%)
- Degree of injury score, Phospholipids C (HepG2 cells; [4]): 1 (variation 25-150%)
- Degree of injury score, Phospholipids MI (HepG2 cells; [4]): 0 (variation lower than 25%)
- Score for phospholipidosis (HepG2 cells; HepG2 cultures, at 100 μM): false positive score
- Effects on all parameters measured over the whole dose range ([1]; hiPSC derived hepatocytes, negative control substance): No significant effects

SMILES: CN(C)[C@@H]1C(O)=C(C(N)=O)C(=O)[C@@]2(O)C(O)=C3C(=O)c4c(O)cccc4[C@@](C)(O)[C@H]3C[C@@H]12 [Tetracycline, tetracycline hydrochloride]
- Significant changes on MMP (HepG2 cells; HepG2): not detected
- IC50/EC50 Nucleus Area (HepG2 cells; HepG2, fixed assay, 48 h): 464 µM
- IC50/EC50 Nucleus Cell count (HepG2 cells; HepG2, fixed assay, 48 h): 558 µM
- IC50/EC50 Nucleus MI (HepG2 cells; HepG2, fixed assay, 48 h): 348 µM
- IC50/EC50 Steatosis Area (HepG2 cells; HepG2, fixed assay, 48 h): 287 µM
- IC50/EC50 Steatosis Count (HepG2 cells; HepG2, fixed assay, 48 h): 36.3 µM
- IC50/EC50 Steatosis MI (HepG2 cells; HepG2, fixed assay, 48 h): 361 µM
- IC50/EC50 MMP MI (HepG2 cells; HepG2, live assay, 48 h): 265 µM
- IC50/EC50 Nucleus Area (HepG2 cells; HepG2, live assay, 48 h): 336 µM
- IC50/EC50 Nucleus Cell count (HepG2 cells; HepG2, live assay, 48 h): 836 µM
- IC50/EC50 Nucleus MI (HepG2 cells; HepG2, live assay, 48 h): 959 µM
- IC50/EC50 ROS MI (HepG2 cells; HepG2, live assay, 48 h): 1149 µM
- MEC, PMP mean intensity (HepG2 cells; human, 48 h): 1000 µM
- MEC, ROS mean intensity (HepG2 cells; human, 48 h): 1000 µM
- MEC, nuclear changes area (NC, A) (HepG2 cells; human, 48 h): 316 µM
- MEC, phospholipidosis mean intensity (PL, MI) (HepG2 cells; human, 48 h): 100 µM
- MEC, steatosis droplet count (S, C) (HepG2 cells; human, 48 h): 100 µM
- MEC, steatosis mean intensity (S, MI) (HepG2 cells; human, 48 h): 100 µM
- Minimal effective concentration (MEC), viability cell count (V, CC) (HepG2 cells; human, 48 h): 316 µM
- Cytotoxic effects [2]: minimal cytotoxic effects
- Phospholipid parameters / accumulation of phospholipids [2]: not detected
- Significant changes in PMP [2]: did not generate any significant changes
- Significant changes on MMP [2]: not detected
- Concentration at which increase in lipid accumulation / lipid droplets was observed ([2]; human, 48 h): 32 µM
- Concentration at which mitochondrial membrane potential (MMP) increased ([2]; human, 48 h): 32 µM
- Concentration at which nuclear changes were evident (nuclear intensity and area) ([2]; human, 48 h): 320 µM
- Concentration at which oxidative stress increased ([2]; human, 48 h): 100 µM
- MEC, ROS mean intensity ([2]; human, 48 h): 316 µM
- MEC, nuclear changes area (NC, A) ([2]; human, 48 h): 316 µM
- MEC, steatosis droplet count (S, C) ([2]; human, 48 h): 316 µM
- MEC, steatosis mean intensity (S, MI) ([2]; human, 48 h): 1000 µM
- MEC, viability cell count (V, CC) ([2]; human, 48 h): 1000 µM
- Minimal effective concentration (MEC), viability cell count (V, CC) ([2]; human, 48 h): 1000 µM
- Cmax [3]: 14.2 µM
- IC50/EC50 Nucleus Area ([1]; hiPS-HEP, fixed assay, 48 h): 105 µM
- IC50/EC50 Nucleus Cell count ([1]; hiPS-HEP, fixed assay, 48 h): 432 µM
- IC50/EC50 Nucleus MI ([1]; hiPS-HEP, fixed assay, 48 h): 211 µM
- IC50/EC50 Steatosis Area ([1]; hiPS-HEP, fixed assay, 48 h): 213 µM
- IC50/EC50 Steatosis Count ([1]; hiPS-HEP, fixed assay, 48 h): 184 µM
- IC50/EC50 Steatosis MI ([1]; hiPS-HEP, fixed assay, 48 h): 418 µM
- IC50/EC50 Nucleus Area ([1]; hiPS-HEP, live assay, 48 h): 211 µM
- IC50/EC50 Nucleus Cell count ([1]; hiPS-HEP, live assay, 48 h): 243 µM
- IC50/EC50 Nucleus MI ([1]; hiPS-HEP, live assay, 48 h): 380 µM
- IC50/EC50 ROS MI ([1]; hiPS-HEP, live assay, 48 h): 160 µM
- Increase of mean nuclear intensity [1, 5]: 12%
- Increase of nuclear area [1, 5]: 14%
- Increase of PMP compared to the control ([1]; hiPSC derived hepatocytes, at the highest concentration): 8%
